Data published in patent US8383623B2, “Phthalazin-(2H)-one inhibitors of kinases” (Abbott Laboratories, priority 2010, dated 2013).

The molecules below were run against T1, Cdc7 (BEV coexpressed huCDC7/DBF4) (Homo sapiens, UniProt O00311) (assay: Cdc7 enzyme inhibition assay ([33P]-ATP, biotinylated peptide substrate, FlashPlate)). Conditions: Ki generated from IC50 assuming ATP-competitive inhibition, apparent ATP Km 0.7 μM; 1 μM ATP, 1 hr.
T1 construct: made in house; host or cells: BEV (baculovirus expression vector)
T1 sequence (O00311 whole entry): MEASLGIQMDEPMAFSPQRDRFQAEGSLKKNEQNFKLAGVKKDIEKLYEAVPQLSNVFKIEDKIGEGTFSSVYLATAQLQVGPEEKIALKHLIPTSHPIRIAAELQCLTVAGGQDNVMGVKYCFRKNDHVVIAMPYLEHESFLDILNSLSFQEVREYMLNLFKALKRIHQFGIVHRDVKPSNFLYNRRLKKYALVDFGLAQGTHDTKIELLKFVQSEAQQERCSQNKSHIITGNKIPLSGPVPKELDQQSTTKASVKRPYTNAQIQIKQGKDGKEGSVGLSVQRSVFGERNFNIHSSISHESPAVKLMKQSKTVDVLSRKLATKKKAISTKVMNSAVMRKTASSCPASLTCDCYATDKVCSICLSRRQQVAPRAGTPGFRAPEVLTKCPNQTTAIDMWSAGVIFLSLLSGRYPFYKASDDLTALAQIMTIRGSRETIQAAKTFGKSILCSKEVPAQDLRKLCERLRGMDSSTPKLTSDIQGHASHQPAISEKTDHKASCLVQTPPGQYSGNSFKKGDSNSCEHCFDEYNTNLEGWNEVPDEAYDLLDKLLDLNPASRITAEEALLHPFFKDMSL
T1 sequence (Q9UBU7 whole entry partner): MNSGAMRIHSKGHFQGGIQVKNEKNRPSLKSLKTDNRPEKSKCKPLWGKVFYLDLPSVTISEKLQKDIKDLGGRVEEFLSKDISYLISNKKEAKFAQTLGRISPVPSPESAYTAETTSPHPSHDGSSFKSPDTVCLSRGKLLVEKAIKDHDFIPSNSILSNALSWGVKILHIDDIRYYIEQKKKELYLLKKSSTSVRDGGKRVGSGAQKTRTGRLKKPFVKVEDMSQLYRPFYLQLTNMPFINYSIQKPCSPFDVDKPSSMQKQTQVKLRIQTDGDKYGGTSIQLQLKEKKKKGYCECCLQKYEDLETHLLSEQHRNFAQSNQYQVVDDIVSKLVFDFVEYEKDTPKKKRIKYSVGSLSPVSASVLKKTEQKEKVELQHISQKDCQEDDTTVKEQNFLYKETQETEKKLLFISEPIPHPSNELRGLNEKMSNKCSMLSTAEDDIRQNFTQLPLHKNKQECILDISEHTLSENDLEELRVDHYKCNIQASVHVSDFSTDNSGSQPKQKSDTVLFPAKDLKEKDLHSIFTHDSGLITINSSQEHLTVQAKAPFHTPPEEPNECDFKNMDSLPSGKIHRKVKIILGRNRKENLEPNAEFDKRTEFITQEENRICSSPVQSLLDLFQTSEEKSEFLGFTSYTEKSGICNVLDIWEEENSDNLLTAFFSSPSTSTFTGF
Type: biochemical
Protocol: This example describes the assays that may be used to identify compounds having kinase activity.
Cdc7 (BEV coexpressed huCDC7/DBF4) is prepared internally. Cdc7 assays are conducted as follows with final concentrations as listed. In 384-well v-bottom polypropylene plates, 6 μL compound (2% DMSO), is mixed with 6 μL of Cdc7 (2 ug/mL), and Jerini peptide substrate A-A11 (biotin-C6linker-TPSDSLIYDDGLS) (2 μM), followed by immediate initiation with 6 μL λ-[^33P]-ATP (1 μM, 20 mCi/μmol) using a reaction buffer comprising 25 mM HEPES, pH 7.5, 1 mM DTT, 10 mM MgCl2, 100 μM Na3VO4, 0.075 mg/ml Triton X-100. Reactions are quenched after 1 hr by the addition of 90 μL stop buffer (50 mM EDTA, 2M NaCl). 85 μL of the stopped reactions are transferred to 384-well streptavidin-coated plates (FlashPlate Plus, Perkin Elmer), incubated 30 minutes at room temperature and washed 3 times with 0.05% Tween-20/PBS using an ELX-405 automated plate washer (BioTek), and counted on a TopCount Scintillation Plate Reader (Packard). IC50 values are determined via non-linear regression fitting of enzyme inhibition data and corresponding Ki values are generated assuming ATP-competitive (equilibrium) inhibition and using the experimentally determined apparent ATP Km of 0.7 μM (as determined using the above assay condition, but varying ATP).
Table 1 depicts enzyme inhibition data (Ki) for exemplary compounds. In Table 1, “A” represents a K, of less than 10 nM, “B” represents a K, of between 10 nM and 100 nM, and “C” represents a Ki of greater than 100 nM.
`O=c1[nH]nc(CC2CCCCN2)c2cc(-c3c[nH]c4ncccc34)ccc12` (stereo not shown) [Example 10, 4-(piperidin-2-ylmethyl)-6-(1H-pyrrolo[2,3-b]pyridin-3-yl)phthalazin-1(2H)-one] showed a Ki of over 100 nM. Work on `O=c1[nH]nc(Cc2ccccc2)c2cc(-c3cccnc3)ccc12` [Example 4, 4-benzyl-6-(pyridin-3-yl)phthalazin-1(2H)-one] yielded a Ki of over 100 nM. For `O=c1[nH]nc(Cc2ccccc2)c2cc(-c3ccncc3)ccc12` [Example 2, 4-benzyl-6-(pyridin-4-yl)phthalazin-1(2H)-one], the Ki was over 100 nM. In the case of `O=c1[nH]nc(CC2CCNCC2)c2cc(-c3c[nH]c4ncccc34)ccc12` [Example 9, 4-(piperidin-4-ylmethyl)-6-(1H-pyrrolo[2,3-b]pyridin-3-yl)phthalazin-1(2H)-one], the Ki is reported as 10 to 100 nM. For `O=c1[nH]nc(Cc2cccnc2)c2cc(-c3c[nH]c4ncccc34)ccc12` [Example 8, 4-(pyridin-3-ylmethyl)-6-(1H-pyrrolo[2,3-b]pyridin-3-yl)phthalazin-1(2H)-one], the Ki was under 10 nM. `O=c1[nH]nc(Cc2ccncc2)c2cc(-c3c[nH]c4ncccc34)ccc12` [Example 5, 4-(pyridin-4-ylmethyl)-6-(1H-pyrrolo[2,3-b]pyridin-3-yl)phthalazin-1(2H)-one] showed a Ki of under 10 nM. Work on `CC(=O)Nc1ccc(Cc2n[nH]c(=O)c3ccc(-c4c[nH]c5ncccc45)cc23)cc1` [Example 12, N-(4-{[4-oxo-7-(1H-pyrrolo[2,3-b]pyridin-3-yl)-3,4-dihydrophthalazin-1-yl]methyl}phenyl)acetamide] yielded a Ki of under 10 nM. `O=c1[nH]nc(CC2CCCNC2)c2cc(-c3c[nH]c4ncccc34)ccc12` (stereo not shown) [Example 7, 4-(piperidin-3-ylmethyl)-6-(1H-pyrrolo[2,3-b]pyridin-3-yl)phthalazin-1(2H)-one] was tested, and the Ki was over 100 nM. Work on `O=c1[nH]nc(Cc2ccccc2)c2cc(-c3c[nH]c4ncccc34)ccc12` [Example 1, 4-benzyl-6-(1H-pyrrolo[2,3-b]pyridin-3-yl)phthalazin-1(2H)-one] yielded a Ki of under 10 nM. For `CN(C)c1ccc(Cc2n[nH]c(=O)c3ccc(-c4c[nH]c5ncccc45)cc23)cc1` [Example 11, 4-[4-(dimethylamino)benzyl]-6-(1H-pyrrolo[2,3-b]pyridin-3-yl)phthalazin-1(2H)-one], the Ki was 10 to 100 nM. `O=c1[nH]nc(Cc2ccccc2)c2cc(-c3cn[nH]c3)ccc12` [Example 3, 4-benzyl-6-(1H-pyrazol-4-yl)phthalazin-1(2H)-one] was tested, and the Ki was 10 to 100 nM. Work on “4-(2,5-dichlorobenzyl)-6-(1H-pyrrolo[2,3-b]pyridin-3-yl)phthalazin-1(2H)-one [Example 6]” yielded a Ki of over 100 nM. Work on `Cn1ccc(Cc2n[nH]c(=O)c3ccc(-c4c[nH]c5ncccc45)cc23)n1` [Example 13, 4-[(1-methyl-1H-pyrazol-3-yl)methyl]-6-(1H-pyrrolo [2,3-b]pyridin-3-yl)phthalazin-1(2H)-one] yielded a Ki of 10 to 100 nM.
